Test results published in the NIST ThermoML archive (doi:10.1021/je900216m).
± gives the expanded uncertainty stated by the source.

Experiment: osmotic coefficient (dimensionless); mn = molality of the nth substance listed, in mol/kg
Conditions: Liquid, isopiestic method

Question: Which results are given for `CCCC[N+](CC)(CC)CC.[Br-]` [butyltriethyl ammonium bromide] + O?
Answer: osmotic coefficient (283.15 K, m1 = 0.1033): 0.9271 ± 0.0029; osmotic coefficient (283.15 K, m1 = 0.1376): 0.9231 ± 0.0031; osmotic coefficient (283.15 K, m1 = 0.2187): 0.9188 ± 0.0033; osmotic coefficient (283.15 K, m1 = 0.2974): 0.9175 ± 0.0034; osmotic coefficient (283.15 K, m1 = 0.3319): 0.9169 ± 0.0035; osmotic coefficient (283.15 K, m1 = 0.4688): 0.92 ± 0.0034; osmotic coefficient (283.15 K, m1 = 0.555): 0.9241 ± 0.0034; osmotic coefficient (283.15 K, m1 = 0.679): 0.9288 ± 0.0033; osmotic coefficient (283.15 K, m1 = 0.78): 0.934 ± 0.0032; osmotic coefficient (283.15 K, m1 = 0.8485): 0.9393 ± 0.0031; osmotic coefficient (283.15 K, m1 = 0.9497): 0.9464 ± 0.0029; osmotic coefficient (288.15 K, m1 = 0.1039): 0.9158 ± 0.0033; osmotic coefficient (288.15 K, m1 = 0.1569): 0.904 ± 0.0038; osmotic coefficient (288.15 K, m1 = 0.2793): 0.8916 ± 0.0043; osmotic coefficient (288.15 K, m1 = 0.3789): 0.8853 ± 0.0046; osmotic coefficient (288.15 K, m1 = 0.4818): 0.884 ± 0.0047; osmotic coefficient (288.15 K, m1 = 0.6069): 0.8837 ± 0.0048; osmotic coefficient (288.15 K, m1 = 0.6983): 0.8853 ± 0.0048; osmotic coefficient (288.15 K, m1 = 0.8052): 0.8899 ± 0.0046; osmotic coefficient (288.15 K, m1 = 0.8847): 0.8929 ± 0.0046; osmotic coefficient (288.15 K, m1 = 1.028): 0.8989 ± 0.0044

Question: Which osmotic coefficient (283.15 K, m1 = 0.1034) does the source give for `CCCC[N+](CC)(CC)CCCC.[Br-]` [dibutyldiethylammonium bromdie] + O here?
Answer: The osmotic coefficient was 0.9261 ± 0.0029.

Question: And the osmotic coefficient (283.15 K, m1 = 0.1376)?
Answer: The osmotic coefficient was 0.9232 ± 0.003.

Question: What about the osmotic coefficient (283.15 K, m1 = 0.2189) of the same compound?
Answer: The osmotic coefficient was 0.9178 ± 0.0033.

Question: And the osmotic coefficient (283.15 K, m1 = 0.2978)?
Answer: The osmotic coefficient was 0.9163 ± 0.0033.

Question: What about the osmotic coefficient (283.15 K, m1 = 0.3324) of the same compound?
Answer: The osmotic coefficient was 0.9156 ± 0.0034.

Question: What about the osmotic coefficient (283.15 K, m1 = 0.4702) of the same compound?
Answer: Its osmotic coefficient is 0.9172 ± 0.0033.

Question: And the osmotic coefficient (283.15 K, m1 = 0.5576)?
Answer: The osmotic coefficient was 0.9198 ± 0.0033.

Question: And the osmotic coefficient (283.15 K, m1 = 0.6825)?
Answer: Its osmotic coefficient is 0.924 ± 0.0032.

Question: And the osmotic coefficient (283.15 K, m1 = 0.7842)?
Answer: Its osmotic coefficient is 0.9289 ± 0.003.

Question: And the osmotic coefficient (283.15 K, m1 = 0.8544)?
Answer: Its osmotic coefficient is 0.9328 ± 0.0029.

Question: What about the osmotic coefficient (283.15 K, m1 = 0.9569) of the same compound?
Answer: The osmotic coefficient was 0.9393 ± 0.0026.

Question: What about the osmotic coefficient (288.15 K, m1 = 0.1041) of the same compound?
Answer: Its osmotic coefficient is 0.9139 ± 0.0034.

Question: What about the osmotic coefficient (288.15 K, m1 = 0.1562) of the same compound?
Answer: Its osmotic coefficient is 0.908 ± 0.0036.

Question: What about the osmotic coefficient (288.15 K, m1 = 0.2772) of the same compound?
Answer: Its osmotic coefficient is 0.8982 ± 0.004.

Question: What about the osmotic coefficient (288.15 K, m1 = 0.3749) of the same compound?
Answer: The osmotic coefficient was 0.8947 ± 0.0041.

Question: And the osmotic coefficient (288.15 K, m1 = 0.4763)?
Answer: Its osmotic coefficient is 0.8941 ± 0.0042.

Question: And the osmotic coefficient (288.15 K, m1 = 0.6002)?
Answer: The osmotic coefficient was 0.8934 ± 0.0043.

Question: And the osmotic coefficient (288.15 K, m1 = 0.6897)?
Answer: Its osmotic coefficient is 0.8963 ± 0.0042.

Question: What about the osmotic coefficient (288.15 K, m1 = 0.7971) of the same compound?
Answer: The osmotic coefficient was 0.8989 ± 0.0041.

Question: What about the osmotic coefficient (288.15 K, m1 = 0.8741) of the same compound?
Answer: The osmotic coefficient was 0.9038 ± 0.0039.

Question: What about the osmotic coefficient (288.15 K, m1 = 1.012) of the same compound?
Answer: The osmotic coefficient was 0.9132 ± 0.0036.

Question: Which results are given for `CC(C)C[N+](CC(C)C)(CC(C)C)CC(C)C.[Br-]` [tetra-iso-butyl ammonium bromide] + O?
Answer: osmotic coefficient (283.15 K, m1 = 0.1035): 0.9253 ± 0.0029; osmotic coefficient (283.15 K, m1 = 0.1376): 0.9231 ± 0.0031; osmotic coefficient (283.15 K, m1 = 0.2192): 0.9167 ± 0.0034; osmotic coefficient (283.15 K, m1 = 0.2986): 0.9138 ± 0.0035; osmotic coefficient (283.15 K, m1 = 0.3332): 0.9133 ± 0.0036; osmotic coefficient (283.15 K, m1 = 0.4724): 0.9129 ± 0.0037; osmotic coefficient (283.15 K, m1 = 0.5608): 0.9146 ± 0.0037; osmotic coefficient (283.15 K, m1 = 0.6871): 0.9179 ± 0.0037; osmotic coefficient (283.15 K, m1 = 0.7904): 0.9217 ± 0.0036; osmotic coefficient (283.15 K, m1 = 0.8617): 0.9249 ± 0.0035; osmotic coefficient (283.15 K, m1 = 0.9658): 0.9307 ± 0.0034; osmotic coefficient (288.15 K, m1 = 0.1041): 0.9142 ± 0.0034; osmotic coefficient (288.15 K, m1 = 0.1569): 0.9038 ± 0.0038; osmotic coefficient (288.15 K, m1 = 0.2795): 0.8908 ± 0.0043; osmotic coefficient (288.15 K, m1 = 0.3804): 0.8818 ± 0.0047; osmotic coefficient (288.15 K, m1 = 0.4856): 0.877 ± 0.005; osmotic coefficient (288.15 K, m1 = 0.6127): 0.8752 ± 0.0051; osmotic coefficient (288.15 K, m1 = 0.7082): 0.8728 ± 0.0052; osmotic coefficient (288.15 K, m1 = 0.8192): 0.8747 ± 0.0052; osmotic coefficient (288.15 K, m1 = 0.9012): 0.8766 ± 0.0052; osmotic coefficient (288.15 K, m1 = 1.05): 0.8804 ± 0.0051

Question: What does the source list for `CCC(C)[N+](C(C)CC)(C(C)CC)C(C)CC.[Br-]` (stereo not given) [tetra-sec-butyl ammonium bromide] + O?
Answer: osmotic coefficient (283.15 K, m1 = 0.1033): 0.927 ± 0.0029; osmotic coefficient (283.15 K, m1 = 0.1377): 0.9222 ± 0.0031; osmotic coefficient (283.15 K, m1 = 0.2195): 0.9154 ± 0.0035; osmotic coefficient (283.15 K, m1 = 0.2991): 0.9123 ± 0.0036; osmotic coefficient (283.15 K, m1 = 0.3339): 0.9114 ± 0.0037; osmotic coefficient (283.15 K, m1 = 0.4732): 0.9114 ± 0.0039; osmotic coefficient (283.15 K, m1 = 0.5619): 0.9128 ± 0.0039; osmotic coefficient (283.15 K, m1 = 0.6887): 0.9157 ± 0.0039; osmotic coefficient (283.15 K, m1 = 0.7927): 0.919 ± 0.0039; osmotic coefficient (283.15 K, m1 = 0.8651): 0.9213 ± 0.0038; osmotic coefficient (283.15 K, m1 = 0.9705): 0.9261 ± 0.0037; osmotic coefficient (288.15 K, m1 = 0.1042): 0.913 ± 0.0034; osmotic coefficient (288.15 K, m1 = 0.1572): 0.9021 ± 0.0039; osmotic coefficient (288.15 K, m1 = 0.2811): 0.8859 ± 0.0046; osmotic coefficient (288.15 K, m1 = 0.3824): 0.8772 ± 0.0049; osmotic coefficient (288.15 K, m1 = 0.4912): 0.867 ± 0.0054; osmotic coefficient (288.15 K, m1 = 0.6212): 0.8632 ± 0.0056; osmotic coefficient (288.15 K, m1 = 0.7168): 0.8624 ± 0.0057; osmotic coefficient (288.15 K, m1 = 0.8295): 0.8638 ± 0.0057; osmotic coefficient (288.15 K, m1 = 0.9119): 0.8663 ± 0.0056; osmotic coefficient (288.15 K, m1 = 1.06): 0.8713 ± 0.0055

Question: For `CCCC[N+](CCCC)(CCCC)CCCC.[Br-]` [tetrabutylammonium bromide] + O, which osmotic coefficient (283.15 K, m1 = 0.1035) is on record?
Answer: Its osmotic coefficient is 0.9257 ± 0.003.

Question: What about the osmotic coefficient (283.15 K, m1 = 0.138) of the same compound?
Answer: The osmotic coefficient was 0.9204 ± 0.0032.

Question: What about the osmotic coefficient (283.15 K, m1 = 0.2197) of the same compound?
Answer: Its osmotic coefficient is 0.9146 ± 0.0034.

Question: What about the osmotic coefficient (283.15 K, m1 = 0.2995) of the same compound?
Answer: The osmotic coefficient was 0.9111 ± 0.0037.

Question: What about the osmotic coefficient (283.15 K, m1 = 0.3343) of the same compound?
Answer: Its osmotic coefficient is 0.9104 ± 0.0037.

Question: And the osmotic coefficient (283.15 K, m1 = 0.4739)?
Answer: The osmotic coefficient was 0.9101 ± 0.004.

Question: What about the osmotic coefficient (283.15 K, m1 = 0.5629) of the same compound?
Answer: Its osmotic coefficient is 0.9111 ± 0.0042.

Question: What about the osmotic coefficient (283.15 K, m1 = 0.6903) of the same compound?
Answer: Its osmotic coefficient is 0.9136 ± 0.0042.

Question: And the osmotic coefficient (283.15 K, m1 = 0.7953)?
Answer: Its osmotic coefficient is 0.916 ± 0.0042.

Question: And the osmotic coefficient (283.15 K, m1 = 0.8682)?
Answer: Its osmotic coefficient is 0.918 ± 0.0042.

Question: And the osmotic coefficient (283.15 K, m1 = 0.9751)?
Answer: The osmotic coefficient was 0.9217 ± 0.0041.

Question: And the osmotic coefficient (288.15 K, m1 = 0.1045)?
Answer: Its osmotic coefficient is 0.9107 ± 0.0035.

Question: What about the osmotic coefficient (288.15 K, m1 = 0.1582) of the same compound?
Answer: The osmotic coefficient was 0.8964 ± 0.0041.

Question: And the osmotic coefficient (288.15 K, m1 = 0.2837)?
Answer: Its osmotic coefficient is 0.8776 ± 0.0049.

Question: What about the osmotic coefficient (288.15 K, m1 = 0.3864) of the same compound?
Answer: Its osmotic coefficient is 0.8681 ± 0.0053.

Question: What about the osmotic coefficient (288.15 K, m1 = 0.4954) of the same compound?
Answer: The osmotic coefficient was 0.8596 ± 0.0058.

Question: What about the osmotic coefficient (288.15 K, m1 = 0.628) of the same compound?
Answer: The osmotic coefficient was 0.8539 ± 0.0062.

Question: What about the osmotic coefficient (288.15 K, m1 = 0.7262) of the same compound?
Answer: The osmotic coefficient was 0.8512 ± 0.0063.

Question: What about the osmotic coefficient (288.15 K, m1 = 0.8429) of the same compound?
Answer: Its osmotic coefficient is 0.8501 ± 0.0064.

Question: What about the osmotic coefficient (288.15 K, m1 = 0.9276) of the same compound?
Answer: Its osmotic coefficient is 0.8517 ± 0.0064.

Question: What about the osmotic coefficient (288.15 K, m1 = 1.079) of the same compound?
Answer: Its osmotic coefficient is 0.8566 ± 0.0062.
